16 compounds from patent US20240415819A1, “MACROCYCLIC COMPOUNDS AS PROTEASOME SUBUNIT BETA TYPE-5 INHIBITORS” (Lead Discovery Center GmbH, priority 2021, published 2024) can be followed below.

Assay [1] addresses T1, β5 subunit of the human constitutive proteasome (CPS) (Homo sapiens, UniProt P28074).
T1 construct: purchased Boston Biochem E-360
The assay is described as follows: β5 inhibition assay, human constitutive proteasome (Suc-LLVY-AMC). In kind it is biochemical. Conditions: IC50 class, Suc-LLVY-AMC substrate. As to the method:
The enzymatic activity of the β5 subunit of the human constitutive proteasome (CPS) is analyzed. In another assay, which differs from the assay of the human constitutive proteasome only in using the human immunoproteasome (IPS) the enzymatic activity of the β5 subunit of the human immunoproteasome (IPS) is analyzed. […] Inhibition is indicated as IC50 [nM] (“-”=not measured).

The target of assay [2] is T2, β5 subunit of the human immunoproteasome (IPS) (Homo sapiens, UniProt P28062).
T2 construct: purchased Boston Biochem E-370
Kind of assay: β5 inhibition assay, human immunoproteasome (Suc-LLVY-AMC). The format is biochemical. Conditions: IC50 class, Suc-LLVY-AMC substrate. Here is the method:
The enzymatic activity of the β5 subunit of the human constitutive proteasome (CPS) is analyzed. In another assay, which differs from the assay of the human constitutive proteasome only in using the human immunoproteasome (IPS) the enzymatic activity of the β5 subunit of the human immunoproteasome (IPS) is analyzed. Incubation of the enzyme with its fluorogenic substrate Suc-LLVY-AMC leads to liberation of the fluorescent dye AMC which can be measured with a suitable plate reader. • 100 mM HEPES pH7.5 • 50 mM NaCl • 0.02% SDS • 1 mM DTT (add fresh) • Victor X5 (Perkin Elmer) • Label: Umbeliferone (0.1s) • Excitation wavelength: 355 nm • Emission wavelength: 460 nm • 4 μl human cPS or IPS enzyme in assay buffer (final assay concentration 1 nM) or 4 μl assay buffer for negative controls • Compound addition via acoustic dispenser (Echo 520, Labcyte) • Mix and incubate @ RT for 10 min • 4 μl Suc-LLVY-AMC substrate (final assay concentration 22.6 μM) • Mix and incubate @ RT for 4 h (dark) • Stop reaction with 4 μl Bortezomib (final assay concentration 1 μM) • 15 min @ RT • Measure (Excitation 355 nm; Emission 460 nm)

The test system of assay [3] is HT-29 cells. Kind of assay: CellTiter-Glo luminescent cell viability assay with HT-29 cells (72h incubation). The following applies: Homo sapiens, HT-29, HT29 cells, read-out: CTG HT29. In kind it is cell-based, human. Here is the method: Cell Titer Glo Viability Assay with HT-29 Cells (72h Incubation) The CellTiter-Glo Luminescent Cell Viability Assay (Promega) is a homogeneous method of determining the number of viable cells in culture. It is based on quantification of ATP, indicating the presence of metabolically active cells. On day 1 400 HT-29 cells per well are seeded in white 384well plates (Greiner, #781080) in 25 μl cell culture medium (DMEM (PAN-Biotech #P04-03590)+10% FCS+glutamine). After incubation for 24 h at 37° C./5% CO2 compounds or DMSO are added at different concentrations by Echo Liquid Handling Technology. Cells are further incubated in humidified chambers for 72 h at 37° C. and 5% CO2. Cells treated with the compound vehicle DMSO are used as positive controls and cells treated with 10 μM Staurosporine serve as negative controls. At day 5-72h after compound addition—the CellTiter Glo Reagent is prepared according to the instructions of the kit (Promega Inc.): Reagent is mixed 1:1 with cell culture medium. Thereon, mixture and assay plates are equilibrated at room temperature for 20 min. Equal volumes of the reagent-medium-mixture is added to the volume of culture medium present in each well. The plates are mixed at […] for 2 minutes on an orbital shaker. The microplates are then incubated at room temperature for 10 minutes for stabilization of the luminescent signal. Following incubation the luminescence is recorded on a Victor microplate reader (Perkin Elmer) using a 200 ms integration time. The data is then analyzed with Excel using the XLFIT Plugin (dose response Fit 205) for IC50-determination. As quality control the Z′-factor is calculated from 16 positive and negative control values. […] Inhibition is indicated as IC50 [nM] (“-”=not measured).
Background: Cellular ATP, detected with luciferase, serves as a proxy for viable cell number.

Regarding `Cc1ccc2cc1CNC(=O)[C@H](CCc1ccccc1)NC(=O)[C@@H](NC(=O)OCc1ccccc1)CC(=O)N(C)CCO2` [Compound 312, benzyl ((8S,11S)-1^4,5-dimethyl-6,9,12-trioxo-11-phenethyl-2-oxa-5,10,13-triaza-1(1,3)-benzenacyclotetradecaphane-8-yl)carbamate], the IC50 in assay [1] is > 5000 nM; in assay [2], 100 to 500 nM; in assay [3], 100 to 500 nM.

For the compound `Cc1ccc2cc1CNC(=O)[C@H](CCc1ccccc1)NC(=O)[C@@H](NC(=O)Cc1ccc(N)cc1C)CC(=O)N1CCCC(CCO2)C1` (stereo partly drawn) [Compound 304, 2-(4-amino-2-methylphenyl)-N-((9S,12S)-5^4-methyl-8,11,14-trioxo-9-phenethyl-4-oxa-7,10-diaza-1(3,1)-piperidina-5(1,3)-benzenacyclotetradecaphane-12-yl)acetamide], the IC50 in assay [1], in assay [2] and in assay [3] was < 100 nM each time.

Turning to `Cc1ccc2cc1CNC(=O)[C@H](CCc1ccccc1)NC(=O)[C@@H](NC(=O)OCc1ccccc1)CC(=O)N1CC(CCO2)Cc2ccccc21` (stereo partly drawn) [Compound 313, benzyl ((9S, 12S)-5^4-methyl-8,11,14-trioxo-9-phenethyl-11,12,13,14-tetrahydro-4-oxa-7,10-diaza-1(3,1)-quinolina-5(1,3)-benzenacyclotetradecaphane-12-yl)carbamate], the IC50 was > 5000 nM in assay [1], 500 to 1000 nM in assay [2] and 100 to 500 nM in assay [3].

On to `Cc1ccc2cc1CNC(=O)[C@H](CCc1ccccc1)NC(=O)[C@@H](NC(=O)Cc1ccc(N)cc1F)CC(=O)N1CCCC(CCO2)C1` (stereo partly drawn) [Compound 318, 2-(4-amino-2-fluorophenyl)-N-((9S,12S)-5^4-methyl-8,11,14-trioxo-9-phenethyl-4-oxa-7,10-diaza-1(3,1)-piperidina-5(1,3)-benzenacyclotetradecaphane-12-yl)acetamide], for which the IC50 in assay [1], in assay [2] and in assay [3] was < 100 nM in each case.

For `Cc1ccc2cc1CNC(=O)[C@H](CCc1ccccc1)NC(=O)[C@@H](NC(=O)C1(c3ccc(N)cc3)CCC1)CC(=O)N1CCCC(CCO2)C1` (stereo partly drawn) [Compound 306, 1-(4-aminophenyl)-N-((9S,12S)-5^4-methyl-8,11,14-trioxo-9-phenethyl-4-oxa-7,10-diaza-1(3,1)-piperidina-5(1,3)-benzenacyclotetradecaphane-12-yl)cyclobutane-1-carboxamide], the IC50 in assay [1], in assay [2] and in assay [3] was < 100 nM throughout.

Turning to `Cc1ccc2cc1CNC(=O)[C@H](CCc1ccccc1)NC(=O)[C@@H](NC(=O)c1cccc3cc(N)ncc13)CC(=O)N1CCCC(CCO2)C1` (stereo partly drawn) [Compound 319, 3-amino-N-((9S,12S)-5^4-methyl-8,11,14-trioxo-9-phenethyl-4-oxa-7,10-diaza-1(3,1)-piperidina-5(1,3)-benzenacyclotetradecaphane-12-yl)isoquinoline-8-carboxamide], the IC50 in assay [1], in assay [2] and in assay [3] was < 100 nM throughout.

As for `CC(=O)N[C@H]1CC(=O)N2CCC(CC2)Oc2ccc(C)c(c2)CNC(=O)[C@H](CCc2ccccc2)NC1=O` [Compound 254, N-((7S,10S)-3^4-methyl-6,9,12-trioxo-7-phenethyl-2-oxa-5,8-diaza-1(4,1)-piperidina-3(1,3)-benzenacyclododecaphane-10-yl)acetamide], the IC50 in assay [3] fell in the range of 100 to 500 nM.

Consider `Cc1ccc2cc1CNC(=O)[C@H](CCc1ccccc1)NC(=O)[C@@H](NC(=O)C1CCc3cc(N)ccc31)CC(=O)N1CCCC(CCO2)C1` (stereo partly drawn) [Compound 317, 5-amino-N-((9S,12S)-5^4-methyl-8,11,14-trioxo-9-phenethyl-4-oxa-7,10-diaza-1(3,1)-piperidina-5(1,3)-benzenacyclotetradecaphane-12-yl)-2,3-dihydro-1H-indene-1-carboxamide], for which the IC50 in assay [1], in assay [2] and in assay [3] was < 100 nM each time.

Take `Cc1cc(CC(=O)N[C@H]2CC(=O)N3CCCC(CCOc4ccc(C)c(c4)CNC(=O)[C@H](CCc4ccccc4)NC2=O)C3)ccc1N` (stereo partly drawn) [Compound 303, 2-(4-amino-3-methylphenyl)-N-((9S,12S)-5^4-methyl-8,11,14-trioxo-9-phenethyl-4-oxa-7,10-diaza-1(3,1)-piperidina-5(1,3)-benzenacyclotetradecaphane-12-yl)acetamide]: the IC50 in assay [1], in assay [2] and in assay [3] was < 100 nM in each case.

Turning to `Cc1ccc2cc1CNC(=O)[C@H](CCc1ccccc1)NC(=O)[C@@H](NC(=O)C1(c3ccc(N)cc3)CC1)CC(=O)N1CCCC(CCO2)C1` (stereo partly drawn) [Compound 307, 1-(4-aminophenyl)-N-((9S,12S)-5^4-methyl-8,11,14-trioxo-9-phenethyl-4-oxa-7,10-diaza-1(3,1)-piperidina-5(1,3)-benzenacyclotetradecaphane-12-yl)cyclopropane-1-carboxamide], the IC50 in assay [1], in assay [2] and in assay [3] was < 100 nM in each case.

As to `Cc1ccc2cc1CNC(=O)[C@H](CCc1ccccc1)NC(=O)[C@@H](NC(=O)Cc1cccc(Cl)c1)CC(=O)N1CCCC(CCO2)C1` (stereo partly drawn) [Compound 61, 2-(3-chlorophenyl)-N-((9S,12S)-54-methyl-8,11,14-trioxo-9-phenethyl-4-oxa-7,10-diaza-1(3,1)-piperidina-5(1,3)-benzenacyclotetradecaphane-12-yl)acetamide], the IC50 in assay [3] was < 100 nM.

In the case of `Cc1ccc2cc1CNC(=O)[C@H](CCc1ccccc1)NC(=O)CCCCCC(=O)N1CCCC(CCO2)C1` (stereo partly drawn) [Compound 22, (9S)-5^4-methyl-9-phenethyl-4-oxa-7,10-diaza-1(3,1)-piperidina-5(1,3)-benzenacycloheptadecaphane-8,11,17-trione], in assay [3], the IC50 fell in the range of 1000 to 5000 nM.

For `Cc1ccc2cc1CNC(=O)[C@H](CCc1ccccc1)NC(=O)[C@@H](NC(=O)OCc1ccccc1)CC(=O)N1CC(CCO2)CCC1C` (stereo partly drawn) [Compound 315, benzyl ((9S,12S)-1^6,5^4-dimethyl-8,11,14-trioxo-9-phenethyl-4-oxa-7,10-diaza-1(3,1)-piperidina-5(1,3)-benzenacyclotetradecaphane-12-yl)carbamate], the IC50 in assay [1], in assay [2] and in assay [3] was < 100 nM throughout.

Consider `Cc1ccc2cc1CNC(=O)[C@H](CCc1ccccc1)NC(=O)[C@@H](NC(=O)c1cccc3c1CNCC3)CC(=O)N1CCCC(CCO2)C1` (stereo partly drawn) [Compound 316, N-((9S,12S)-5^4-methyl-8,11,14-trioxo-9-phenethyl-4-oxa-7,10-diaza-1(3,1)-piperidina-5(1,3)-benzenacyclotetradecaphane-12-yl)-1,2,3,4-tetrahydroisoquinoline-5-carboxamide], for which the IC50 in assay [1], in assay [2] and in assay [3] was < 100 nM in each case.

Regarding `Cc1ccc2cc1CNC(=O)C(CCc1cnccn1)NC(=O)[C@@H](NC(=O)[C@@H](C)c1ccccc1)CC(=O)N1CCCC(CCO2)C1` (stereo partly drawn) [Compound 107, (2S)—N-((12S)-5^4-methyl-8,11,14-trioxo-9-(2-(pyrazin-2-yl)ethyl)-4-oxa-7,10-diaza-1(3,1)-piperidina-5(1,3)-benzenacyclotetradecaphane-12-yl)-2-phenylpropanamide], the IC50 in assay [3] is < 100 nM.

Take `Cc1ccc2cc1CNC(=O)C(CCc1ccccc1)NC(=O)CCC(=O)N1CCCC(CCO2)C1` (centres unmarked) [Compound 495, 5^4-methyl-9-phenethyl-4-oxa-7,10-diaza-1(3,1)-piperidina-5(1,3)-benzenacyclotetradecaphane-8,11,14-trione]: the IC50 in assay [3] lay within 100 to 500 nM.
